Target: T1, Human Type I Steroid 5α-Reductase (Homo sapiens, UniProt P18405)
T1 construct: Preparation of Type I 5α-Reductase from Human Scalp; from tissue; host or cells: human scalp skin (punch biopsies from hair transplant graft recipient sites), 100,000 x g pellet of homogenate
T1 sequence (P18405 1-259): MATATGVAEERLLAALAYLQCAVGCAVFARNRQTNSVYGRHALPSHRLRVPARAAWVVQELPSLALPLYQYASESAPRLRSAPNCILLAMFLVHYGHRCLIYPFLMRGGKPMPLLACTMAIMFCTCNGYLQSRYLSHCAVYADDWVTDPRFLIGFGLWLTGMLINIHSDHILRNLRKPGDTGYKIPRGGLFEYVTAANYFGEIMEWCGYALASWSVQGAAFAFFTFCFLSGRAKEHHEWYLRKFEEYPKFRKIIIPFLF
Test: Human Type I Steroid 5α-Reductase homogenate assay (human scalp enzyme; conversion of [3H]-testosterone to [3H]-5α-dihydrotestosterone and other 5α-reduced metabolites)
Type: biochemical
Details: 0.3 μM; compared to control reaction mixtures; 50 nM [3H]-testosterone, pH 7.5, 25°, 180 min
From the text: Methodology of Human Type I Steroid 5α-Reductase Assays
The subcutaneous tissue was cut away and discarded. The skin was frozen with liquid nitrogen and pulverized to powder. […] The homogenization procedure consisted of four 15 second pulses. Connective tissue was cleared from the probe with forceps between pulses. […] The pellet was resuspended by homogenization with a Dounce homogenizer using the same buffer solution. An aliquot was taken for protein determination by the Lowry method, Lowry, et al., Protein Measurement with the Folin Phenol Reagent, J. Biol. Chem., 193, 265-75 (1951). Aliquots of the enzyme preparation were stored at -80° until use.
The reaction was initiated by the addition of 0.5 mg of Type I 5α-reductase. The reaction mixture was incubated at 25° for 180 min, and terminated by the addition of 1 mL ice-cold stopping solution. […] The samples were prepared for high performance liquid chromatography by solid phase extraction. […] The reaction mixtures were then applied to the columns. The columns were subsequently washed with 5 mL of acetone:water (1:4), followed by 0.3 mL of methanol. The samples were then eluted with 3 mL of methanol and collected in 20 mL scintillation vials. Three mL of water was then added to each scintillation vial. […] The column temperature was maintained at 35° and the flow rate was 1.5 mL/min.

`CN1C(=O)CC[C@]2(C)c3ccc(-c4ccc(-c5ccc(NC(=O)C(C)(C)C)s5)cc4)cc3CC[C@@H]12` [Example 222, (+)-(4aR)-(10bR)-4-methyl-8-(4-[(2-t-butylcarbonylamino]-5-thienyl]phenyl)-10b-methyl-1,2,3,4,4a,5,6,10b-octahydro-benzo[f]quinolin-3-one] was tested, and the “percent inhibition of Type I 5AR” value was 86%.
`CN1C(=O)CC[C@]2(C)c3ccc(-c4cccc(NC(=O)C(C)(C)C)c4)cc3CC[C@@H]12` [Example 34, (+)-(4aR)-(10bR)-4-methyl-8-(3-t-butylcarboxamidophenyl)-10b-methyl-1,2,3,4,4a,5,6,10b-octahydrobenzo[f]quinolin-3-one] was tested, and the “percent inhibition of Type I 5AR” value was 13%.
`CN1C(=O)CC[C@]2(C)c3ccc(-c4cccc(NC(=O)C5CCN(Cc6ccccc6)CC5)c4)cc3CC[C@@H]12` [Example 209, (+)-(4aR)-(10bR)-4-methyl-8-(3-[1-benzyl-4-piperidinyl-carboxamido]phenyl)-10b-methyl-1,2,3,4,4a,5,6,10b-octahydrobenzo[f]quinolin-3-one] was tested, and the “percent inhibition of Type I 5AR” value was 24%.
“(+)-(4aR)-(10bR)-4-methyl-8-benzyloxycarbonyl-10b-methyl-1,2,3,4,4a,5,6,10b-octahydrobenzo[f]quinolin-3-one [Example 144]” was tested, and the “percent inhibition of Type I 5AR” value was 90%.
